According to US12344603B2 (Genentech, Inc., priority 2020, dated 2025):

target: IRE1α (Homo sapiens (Human), UniProt O75460, D688N); assay: IRE1α TR-FRET competition binding assay (IRE1α HTRF); details: TR-FRET competition binding to kinase domain of IRE1α
Method in brief: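 Competition of compounds against an Alexa fluor 647 ATP-site probe (2 nM final) for the His-tagged kinase domain (0.25 nM final), detected via 2 nM Eu anti-His antibody by TR-FRET, 665 and 615 nm emission. Protein–antibody premix 1 h, 4° C; reaction 1 h, room temperature, pH 7.5 HEPES buffer.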

Chain of IRE1α (O75460 547-977 D688N): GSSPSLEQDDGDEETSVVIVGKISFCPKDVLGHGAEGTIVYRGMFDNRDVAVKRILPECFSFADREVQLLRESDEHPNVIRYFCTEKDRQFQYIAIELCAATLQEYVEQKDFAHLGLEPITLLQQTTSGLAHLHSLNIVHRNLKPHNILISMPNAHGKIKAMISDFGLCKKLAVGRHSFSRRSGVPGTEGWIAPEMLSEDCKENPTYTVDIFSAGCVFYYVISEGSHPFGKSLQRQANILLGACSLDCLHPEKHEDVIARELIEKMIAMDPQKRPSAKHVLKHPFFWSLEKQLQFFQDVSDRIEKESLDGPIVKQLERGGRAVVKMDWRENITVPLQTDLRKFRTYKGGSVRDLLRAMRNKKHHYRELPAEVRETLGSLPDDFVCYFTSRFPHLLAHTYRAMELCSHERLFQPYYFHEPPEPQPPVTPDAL

Row | Compound | IC50
1 | CC(C)n1c(=O)c(-c2ccc(NS(=O)(=O)C3CC4CCC3C4)c(F)c2)nc2cnc(N[C@H]3CC[C@H](N(C)C)CC3)nc21 (stereo partly drawn) [Example 281, N-(4-(2-(((1r, 4r)-4-(dimethylamino)cyclohexyl)amino)-8-isopropyl-7-oxo-7,8-dihydropteridin-6-yl)-2-fluorophenyl)bicyclo[2.2.1]heptane-2-sulfonamide] | 0.5 nM
2 | N-(2,3,6-trifluoro-4-(8-isopropyl-2-((4-((2-methoxyethyl)(methyl)amino)cyclohexyl)amino)-7-oxo-7,8-dihydropyrido[2,3-d]pyrimidin-6-yl)phenyl)propane-1-sulfonamide [Compound 101A] | 0.35 nM
3 | N-(2,3,6-trifluoro-4-(8-isopropyl-2-((4-((2-methoxyethyl)(methyl)amino)cyclohexyl)amino)-7-oxo-7,8-dihydropyrido[2,3-d]pyrimidin-6-yl)phenyl)propane-1-sulfonamide [Compound 101B] | 120 nM
